Data on four compounds can be found in patent US7829587B2, “Substituted 2-aminotetralin derivatives as selective alpha 2B agonist” (Allergan, Inc., priority 2008, dated 2010).

What all share (format): cell-based
One assay concerns the target T1, human α2C receptor (Homo sapiens, UniProt P18825).
T1 construct: expressed in transfected cells; host or cells: HEK 293
T1 sequence (P18825 1-462): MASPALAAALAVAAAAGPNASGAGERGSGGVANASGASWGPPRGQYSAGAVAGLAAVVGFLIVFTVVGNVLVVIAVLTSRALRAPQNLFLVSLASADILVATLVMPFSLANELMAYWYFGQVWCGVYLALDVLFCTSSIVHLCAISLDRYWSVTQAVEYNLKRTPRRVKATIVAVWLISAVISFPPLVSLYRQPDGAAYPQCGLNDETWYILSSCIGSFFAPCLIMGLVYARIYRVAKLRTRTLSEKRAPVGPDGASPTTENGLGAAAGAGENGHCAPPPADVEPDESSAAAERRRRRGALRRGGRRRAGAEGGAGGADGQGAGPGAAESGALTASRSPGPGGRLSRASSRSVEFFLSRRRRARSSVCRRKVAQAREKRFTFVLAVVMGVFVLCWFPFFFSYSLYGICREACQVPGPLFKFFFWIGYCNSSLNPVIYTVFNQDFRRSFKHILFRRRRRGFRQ
Description: FLIPR Ca+2 influx assay, α2C. The following applies: for EC50: HEK 293 cells stably expressing human α2C receptor and chimeric G protein Gqi5; for Relative efficacy FLIPR α2C: relative efficacy compared to standard full agonist norepinephrine, HEK 293, human α2C/Gqi5. The procedure: (§1) The compounds disclosed herein are agonists of alpha 2B/2C adrenergic receptors. […] This assay is adequate for monitoring the intracellular Ca^2+ mobilization from fluorescent reading to evaluate receptor agonists.
(§2) FLIPR Ca+2 Influx Assay: HEK 293 cells stably expressing the bovine α1A receptor, the rat α1B receptor, the human α2A receptor and the chimeric G protein Gqi5, the human α2C receptor and the chimeric G protein Gqi5 and the mouse α2B receptor and the Gα16 protein were plated in poly-D-lysine coated 384 well plates at 15,000-25,000 cells per well and grown overnight in DMEM supplemented with 10% fetal bovine serum. For FLIPR (fluorometric image plate reader) evaluation, cells were washed 2-4 times with HBSS/HEPES Buffer (1× Hanks Buffered Salt Solution, 20 mM HEPES<pH 7.4) prior to the addition of Fluo-4-AM (4 uM Fluo-4-AM, 0.04% pluronic acid in HBSS/HEPES Buffer), a calcium-sensitive dye. Cells were loaded with Dye for 40 minutes at 30° C., then washed 4-8 times with HBSS/HEPES Buffer to remove excess dye. Cells were preincubated at 37° C. for 3 minutes prior to placement into the FLIPR instrument. The reaction was carried out at 37° C. and was initiated by the addition of the appropriate dilutions of compounds. The transient calcium was captured and the peak height of the calcium curve determined and utilized for calculation of EC50 and efficacy using ActivityBase. Data is stored in the ActivityBase database under the unique identifier “Test Occasion”, which reflects the results of an assay run on a particular date and the individual responsible for the assay. Norepinephrine was the standard full agonist for evaluating alpha1 and alpha2 receptor activity.

In a further assay the target is T2, mouse α2B receptor (Mus musculus, UniProt P30545).
T2 construct: expressed in transfected cells; host or cells: HEK 293
T2 sequence (P30545 1-453): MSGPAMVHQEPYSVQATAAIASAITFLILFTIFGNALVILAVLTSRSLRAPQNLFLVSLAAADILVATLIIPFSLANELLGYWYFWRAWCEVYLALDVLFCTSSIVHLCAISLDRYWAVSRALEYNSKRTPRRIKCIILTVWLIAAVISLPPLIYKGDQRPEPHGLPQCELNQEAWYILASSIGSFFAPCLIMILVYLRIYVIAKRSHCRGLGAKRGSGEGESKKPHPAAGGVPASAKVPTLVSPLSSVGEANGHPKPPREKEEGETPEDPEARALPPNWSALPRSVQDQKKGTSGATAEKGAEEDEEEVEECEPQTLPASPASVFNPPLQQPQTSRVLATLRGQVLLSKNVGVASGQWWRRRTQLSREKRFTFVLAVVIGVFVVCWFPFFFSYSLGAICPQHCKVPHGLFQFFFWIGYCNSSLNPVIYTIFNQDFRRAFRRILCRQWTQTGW
Description: FLIPR Ca+2 influx assay, α2B. The note with it: for Relative efficacy FLIPR α2B: relative efficacy compared to standard full agonist norepinephrine, HEK 293, mouse α2B/Gα16. The procedure:
as §1, §2

In a further assay the target is T3, human α2A receptor (Homo sapiens, UniProt P08913).
T3 construct: expressed in transfected cells; host or cells: HEK 293
T3 sequence (P08913 1-465): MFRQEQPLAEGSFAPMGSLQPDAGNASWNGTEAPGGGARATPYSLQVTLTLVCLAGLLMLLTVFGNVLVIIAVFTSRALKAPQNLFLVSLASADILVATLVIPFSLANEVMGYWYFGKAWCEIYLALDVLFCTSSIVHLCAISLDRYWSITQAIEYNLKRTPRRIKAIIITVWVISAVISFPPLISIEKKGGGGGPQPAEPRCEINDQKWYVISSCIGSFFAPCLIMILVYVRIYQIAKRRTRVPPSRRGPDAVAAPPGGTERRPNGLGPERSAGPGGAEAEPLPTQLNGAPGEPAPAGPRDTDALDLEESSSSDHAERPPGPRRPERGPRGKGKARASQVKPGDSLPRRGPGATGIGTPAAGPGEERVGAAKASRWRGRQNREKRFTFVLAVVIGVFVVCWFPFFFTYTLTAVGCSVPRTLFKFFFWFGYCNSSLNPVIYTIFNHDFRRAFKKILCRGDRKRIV
Description: FLIPR Ca+2 influx assay, α2A. The note with it: for EC50: HEK 293 cells stably expressing human α2A receptor and chimeric G protein Gqi5; for Relative efficacy FLIPR α2A: relative efficacy compared to standard full agonist norepinephrine, HEK 293, human α2A/Gqi5. The procedure:
as §1, §2

In another assay the target is T4, bovine α1A receptor (Bos taurus, UniProt P18130).
T4 construct: expressed in transfected cells; host or cells: HEK 293
T4 sequence (P18130 1-466): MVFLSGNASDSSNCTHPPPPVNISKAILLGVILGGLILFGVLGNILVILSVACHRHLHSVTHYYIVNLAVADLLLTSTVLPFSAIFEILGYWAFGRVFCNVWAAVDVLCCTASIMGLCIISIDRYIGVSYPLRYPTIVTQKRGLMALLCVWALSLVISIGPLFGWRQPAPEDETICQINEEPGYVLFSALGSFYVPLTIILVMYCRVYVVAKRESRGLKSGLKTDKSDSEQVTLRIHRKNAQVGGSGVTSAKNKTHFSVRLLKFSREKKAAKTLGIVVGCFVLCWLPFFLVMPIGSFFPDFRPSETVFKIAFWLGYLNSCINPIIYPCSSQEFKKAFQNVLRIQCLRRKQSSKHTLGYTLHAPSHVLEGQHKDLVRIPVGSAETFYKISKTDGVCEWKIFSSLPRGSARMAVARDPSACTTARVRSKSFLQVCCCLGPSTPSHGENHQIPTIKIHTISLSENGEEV
The experiment in a line: FLIPR Ca+2 influx assay, α1A. The note with it: for EC50: HEK 293 cells stably expressing bovine α1A receptor; for Relative efficacy FLIPR α1A: relative efficacy compared to standard full agonist norepinephrine, HEK 293, bovine α1A. The procedure: as §1, §2

The next assay deals with T5, rat α1B receptor (Rattus norvegicus, UniProt P15823).
T5 construct: expressed in transfected cells; host or cells: HEK 293
T5 sequence (P15823 1-515): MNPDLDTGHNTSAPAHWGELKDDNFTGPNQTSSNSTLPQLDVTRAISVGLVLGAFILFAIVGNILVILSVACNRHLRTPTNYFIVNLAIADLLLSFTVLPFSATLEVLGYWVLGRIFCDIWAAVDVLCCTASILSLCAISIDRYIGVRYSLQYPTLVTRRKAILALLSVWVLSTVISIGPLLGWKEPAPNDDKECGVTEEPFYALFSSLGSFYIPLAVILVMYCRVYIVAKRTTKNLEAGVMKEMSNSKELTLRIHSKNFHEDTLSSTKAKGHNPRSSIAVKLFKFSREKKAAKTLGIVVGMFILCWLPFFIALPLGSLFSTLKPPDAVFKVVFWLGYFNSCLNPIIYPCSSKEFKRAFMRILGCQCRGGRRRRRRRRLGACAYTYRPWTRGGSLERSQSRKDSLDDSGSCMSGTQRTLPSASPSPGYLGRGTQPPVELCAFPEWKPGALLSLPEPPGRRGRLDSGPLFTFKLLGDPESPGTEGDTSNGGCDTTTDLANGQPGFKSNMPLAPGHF
Description: FLIPR Ca+2 influx assay, α1B. The note with it: for EC50: HEK 293 cells stably expressing rat α1B receptor; for Relative efficacy FLIPR α1B: relative efficacy compared to standard full agonist norepinephrine, HEK 293, rat α1B. The procedure:
as §1, §2

[1] abbreviates: HEK 293 cells stably expressing mouse α2B receptor and Gα16 protein.

Each structure is given as a SMILES string.

By EC50 is commonly meant the midpoint of the concentration-response curve. Turning to `CCCN(Cc1ccncc1)[C@@H]1CCc2cccc(OC)c2C1`, at human α2C receptor, the EC50 was 0.557 µM and the “Relative efficacy FLIPR α2C” value is 0.67. Further, the “EC50 FLIPR α2B” value on mouse α2B receptor (setting [1]) is recorded as “potent”. The “Relative efficacy FLIPR α2B” value at mouse α2B receptor came out at 1.02. Besides, at human α2A receptor, the EC50 was 0.424 µM and the “Relative efficacy FLIPR α2A” value is recorded as 0.34. Further, on bovine α1A receptor, the EC50 was greater than 10 µM and the “Relative efficacy FLIPR α1A” value amounted to 0. For the same compound, at rat α1B receptor, the EC50 is greater than 10 µM and the “Relative efficacy FLIPR α1B” value was determined as 0.
Consider `CCCN(Cc1ccncc1)C1CCc2cccc(O)c2C1` (centres unmarked), for which the “Relative efficacy FLIPR α2C” value at human α2C receptor is “ND (0.12)”. The compound also yielded an EC50 on mouse α2B receptor (setting [1]) of 58 nM. In addition, the “Relative efficacy FLIPR α2B” value on mouse α2B receptor is 1.06. For the same compound, at human α2A receptor, the EC50 was greater than 10 µM and the “Relative efficacy FLIPR α2A” value amounted to 0. At bovine α1A receptor, the EC50 is greater than 10 µM and the “Relative efficacy FLIPR α1A” value came to 0. For the same compound, at rat α1B receptor, the 50% effective concentration (EC50) was greater than 10 µM and the “Relative efficacy FLIPR α1B” value came to 0.
Take `CCCN(Cc1ccccn1)C1CCc2cccc(O)c2C1` (centres unmarked) [drawing 20]: at human α2C receptor, the 50% effective concentration (EC50) was greater than 10 µM and the “Relative efficacy FLIPR α2C” value is given as 0. The same compound yielded an EC50 at mouse α2B receptor (setting [1]) of 568 nM. The “Relative efficacy FLIPR α2B” value at mouse α2B receptor came to 0.69. At human α2A receptor, the EC50 is greater than 10 µM and the “Relative efficacy FLIPR α2A” value was 0. For the same compound, on bovine α1A receptor, the EC50 was greater than 10 µM and the “Relative efficacy FLIPR α1A” value is 0. Moreover, on rat α1B receptor, the EC50 is greater than 10 µM and the “Relative efficacy FLIPR α1B” value came out at 0.
`CCCN(Cc1ccccn1)C1CCc2cccc(O)c2C1` (centres unmarked) [drawing 21]: the EC50 was greater than 10 µM at human α2C receptor, 33 nM on mouse α2B receptor (setting [1]), greater than 10 µM at human α2A receptor and greater than 10 µM on rat α1B receptor. Further, the “Relative efficacy FLIPR α2C” value at human α2C receptor was determined as 0. In addition, the “Relative efficacy FLIPR α2B” value on mouse α2B receptor is 0.95. Also, at human α2A receptor, the “Relative efficacy FLIPR α2A” value is recorded as 0. In addition, at bovine α1A receptor, the “Relative efficacy FLIPR α1A” value is listed as “ND (0.05)”. Further, the “Relative efficacy FLIPR α1B” value on rat α1B receptor is listed as 0.
